For assay [1], the system named is subjects with fibromyalgia. Briefly: PROMISFM fatigue profile. It is filed as in vivo, human. An excerpt:
As used herein, the “PROMISFM” fatigue profile is Patient Reported Outcomes Measurement Information System Fibromyalgia, which is a 16-question instrument which has four 4-item short forms that examines the intensity of the impact of fatigue in social, cognitive and motivation subdomains. All 16 questions are based on a 5-point numerical rating scale/Likert scale ranging from 1 to 5, with different categorical responses. Lower scores represent a better quality of life. The PROMISFM fatigue profile is made of the 4 following subdomains: • Experience Subdomain Score 3 Questions with Scores Ranging from 1 (Not at All) to 5 (Very Much): • How tired did you feel on average? • How fatigued were you on average? • How exhausted were you on average? 1 Question with Scores Ranging from 1 (None) to 5 (Very Severe): • What was the level of your fatigue on most days? • Sum of those 4 Questions make up the Experience Subdomain Score Ranging from 4 to 20 • Social Impact Subdomain Score 2 Questions with Scores Ranging from 1 (Not at All) to 5 (Very Much): • To what degree did your fatigue interfere with your social activities? • To what degree did your fatigue interfere with your ability to engage in recreational activities? 2 Questions with Scores Ranging from 1 (Never) to 5 (Always): • How often did you have to limit your social activities because of your fatigue? • How often were you too tired to socialize with your friends? • Sum of those 4 Questions make up the Social Impact Subdomain Score Ranging from 4 to 20 • Motivational Impact Subdomain Score 2 Questions with Scores Ranging from 1 (Not at All) to 5 (Very Much): • To what degree did you have trouble starting things because of your fatigue? • To what degree did you have trouble finishing things because of your fatigue? […] 2 Questions with Scores Ranging from 1 (Never) to 5 (Always): • How often were you too tired to think clearly? • How often did your fatigue make you more forgetful? • Sum of those 4 Questions make up the Cognitive Impact Subdomain Score Ranging from 4 to 20
If at least 2 questions were answered within an individual subdomain, that subdomain score was imputed if missing responses are present. Each subdomain score was multiplied by 4/(number of questions answered) and rounded off to the nearest whole number. Otherwise, that subdomain score was set to missing. The total score was calculated by taking the sum of those 4 subdomains and ranged from 16 to 80. If any of the subdomains were missing, the total score was set to missing. The PROMISFM fatigue profile assessment was collected and analyzed at visits Screening, Day 1, Week 2, Week 4, Week 6, and Follow-up (Week 7). The observed total and subdomain scores, changes from baseline, and changes from treatment periods were summarized using descriptive statistics. Additionally, the treatment group comparisons were analyzed using the paired t-test and nonparametric Wilcoxon signed-rank test. All PROMISFM fatigue profile data collected and the calculated total and subdomain scores at each visit were presented in a subject listing.

The subject of assay [2] is subjects with fibromyalgia. Briefly: QST: MAST pressure pain sensitivity at the thumbnail. It counts as in vivo, human. An excerpt: The multi-modal automated sensory testing (MAST) system was used to measure localized pressure sensitivity at an asymptomatic, neutral body site, the thumbnail. The MAST system is a nonsignificant-risk investigational device that applies a computer-controlled mechanical stimulation at precisely controlled intensity levels and durations. The validity in the measurement of centrally-mediated pain sensitivity has been discussed extensively. The MAST system delivered an ascending series of computer-controlled, 5-second pressures at 20-second intervals (with 20% jitter) to the subject's thumbnail bed, beginning at 0.25 to 0.5 kg/cm^2 and increasing in steps of 0.25 to 0.50 kg/cm^2. Pain intensity was rated after each pressure on a 0 to 100 NRS. Testing was terminated when the first of 3 possible stop conditions were met: 1) subject reached her personal pain tolerance and requested to stop the test, 2) subject reported a pain intensity rating of >80, or 3) the maximum pressure of 10 kg/cm^2 was delivered. A regression model was used fit the stimulus-response data obtained from this procedure and interpolate Pain50, defined as the pressure intensity that evokes a moderate level of suprathreshold pressure pain (i.e., 50/100). Additional derived variables included: 1) Pressure pain threshold, defined as the first pressure in a series of at least 2 consecutive pressures that elicited a NRS pain rating >0; 2) slope of the stimulus-response function as a measure of the rate of pain increase; and 3) pressure pain tolerance, defined as the last pressure recorded in the stimulus response profile. These variables were used to determine the effect of drug and placebo treatments on pain sensitivity.
QST data were analyzed at the University of Michigan CPFRC. Dependent variables were the MAST derived outcomes (Pain50, pressure pain threshold, pain tolerance, and pain ratings at 2 kg/cm2), algometry-derived pressure pain thresholds (mean of three trials) at each anatomical site, average cuff intensity ratings (mean of ratings at all stimulus levels during the ascending or random sequences), and average visual task unpleasantness and brightness intensity ratings (mean of ratings at all stimulus levels). Practice data were not analyzed. Overall pain intensity and unpleasantness NRS scores as well as stimulus response curves for each test were assessed during post hoc analyses. Data points displaying measurement artefacts, including device malfunction or user error, were set to missing. Single subject QST variables were analyzed using paired t-tests and/or nonparametric Wilcoxon signed-rank tests in SPSS or R.

In the case of `CC(C)C(=O)N1CCC[C@]12CN([C@H](C(N)=O)[C@@H](C)O)C2=O` [NYX-2925, (2S, 3R)-3-hydroxy-2-((R)-5-isobutyryl-1-oxo-2,5-diazaspiro[3.4]octan-2-yl)butanamide], the “PROMISFM total fatigue profile score, change from baseline” value in assay [1] (NYX-2925 20 mg) is “reductions from baseline”. The “PROMISFM Cognitive Impact Subdomain Score, changes from Week 2 (placebo)” value in assay [1] (NYX-2925 treatment at Weeks 4 and 6) is “not statistically significant”. Besides, the “PROMISFM Fatigue Profile Total Score, mean change” value in assay [1] (Week 2 (placebo) to Week 4 (NYX-2925 20 mg), not statistically significant) is −3.4; in assay [1] (Week 2 (placebo) to Week 6 (NYX-2925 200 mg), p=0.0049) it was −5.6. The “PROMISFM Experience Subdomain Score, mean change” value in assay [1] (Week 2 (placebo) to Week 6 (NYX-2925 200 mg), p=0.0036) is recorded as −2.2. Moreover, in assay [1] (Week 2 (placebo) to Week 6 (NYX-2925 200 mg), p=0.0329), the “PROMISFM Social Impact Subdomain Score, mean change” value is −1.4. For the same compound, in assay [1] (Week 2 (placebo) to Week 6 (NYX-2925 200 mg), p=0.0490), the “PROMISFM Motivational Impact Subdomain Score, mean change” value was −1.0. Further, the “PROMISFM Fatigue Profile total score, reduction from baseline” value in assay [1] (week six, after four weeks of NYX-2925, scale 16 to 80, n=21) is 5.4 point. Also, the “MAST Pain50 threshold” value in assay [2] (NYX-2925 20 mg relative to baseline, p=0.079) is listed as “marginal decrease in threshold”. Also, in assay [2] (NYX-2925 200 mg), the “pain thresholds of the MAST test” value is given as “not significantly altered”. Besides, the “rating of pain unpleasantness evoked by MAST testing” value in assay [2] (NYX-2925 200 mg, baseline 50.00±24.24, p=0.038) was determined as 42.14±19.34. Further, in assay [2] (NYX-2925 200 mg, baseline 51.43±15.01, p=0.035), the “rating of overall pain intensity evoked by MAST testing” value was 44.76±12.19 NRS units.
